Data reported in patent US7288258B2, “Polyepitopic protein fragments of the E6 and E7 proteins of HPV, their production and their use particularly in vaccination” (Peptide Immune Ligands, priority 1999, dated 2007).

Assays:
Test in all cases: association of peptide with HLA molecules and stability of the complex
Conditions in all cases: stable complex: peptide remains bound for at least about 3 hours at 37° C.
[1] = system: HLA molecules of the B8 type; assay type: binding, human
Excerpt: (§1) The different epitopes of the polyepitopic region of the predetermined protein, and delimiting the epitopic protein fragments, are preferably selected from the peptides; • binding to a predetermined molecule of MCH, particularly to a molecule of the predetermined HLA type, and this from concentrations of about 10^−6 M to about 10^−10 M in peptide for concentrations of about 10^−7 M of HLA molecules, particularly under the conditions described hereafter, • and forming a stable complex with said MCH molecule, namely particularly a complex in which said peptide remains bound to said molecule for at least about 3 hours at 37° C.
(§2) By way of illustration, the above-mentioned epitopes of the invention are selected from among the peptides adapted: • on the one hand of associating with the molecules of MCH, particularly by using the following method: • incubation (particularly for about 2 hours at 25° C., then about 15 hours at 4° C.) of the peptide in the presence of MCH molecules, from the lysis of human or animal cells, or purified particularly by affinity chromatography from human or animal cell lines, • trapping complexes formed during the preceding step on a solid support covered with a first antibody, particularly monoclonal, recognizing specifically the CMH molecules in their configuration dependent on their connection to said peptide, • addition to the preceding solid support of a second marked antibody, particularly by coupling to a radioactive, enzymatic or fluorescent marker, said marked antibody recognizing specifically either the long chains of MCH in their configuration dependent on their connection to the peptide, or the short chain of MCH or the β2-microglobulin binding specifically to the different long chains of the MCH in their above-mentioned configuration, • detection, after rinsing of the solid support, of the possible presence of the second marked antibody remaining fixed on the solid support, signifying an association effect between the molecules of MCH and the peptide studied, • and, on the other hand, forming a complex with said MCH molecules, whose stability can be evaluated by the use of a method of following according to time the connection established between the peptide and the MCH molecules, this method being preferably carried out according to a protocol identical to the preceding method, but in which the incubation step of the peptide in the presence of MCH molecules on the solid support covered with said first antibody, is preceded by a preliminary step of eliminating the free peptide adapted that may be present in the reaction medium, particularly by washing the solid support, said incubation step being carried out (preferably at a temperature of 37° C.) for variable times of 1 hours, 3 hours, 5 hours, 24 hours and 48 hours.
(§3) As mentioned above, the epitopes of the invention should be recognized by the T cells in association with the MCH molecules and associate with these latter, particularly in the framework of the practice of the recognition test described above. This association can be weak (detectable at concentrations of peptide analogs of the order of 10^−4 to 10^−5 M), intermediate (detectable at concentrations of peptide analogs of the order of 10^−6 to 10^−7 M), or strong (detectable at concentrations of peptide analogs of the order of 10^−8 to 10^−9 M). The peptides associated with the MCH molecules in the scope of the present invention are preferably adapted to bond during at least about 3 hours, to said MCH molecules.

[2] = system: HLA molecules of the B44 type; assay type: binding, human
Excerpt: as §1, §2, §3

[3] = system: HLA molecules of the A2 type; assay type: binding, human
Excerpt: as §1, §2, §3

[4] = system: HLA molecules of the B27 type; assay type: binding, human
Excerpt: as §1, §2, §3

[5] = system: HLA molecules of the A11 type; assay type: binding, human
Excerpt: as §1, §2, §3

[6] = molecular target: T1, HLA molecules of the A3 type (Homo sapiens, UniProt P04439); assay type: binding
T1 construct: endogenous in cells
T1 sequence (P61769 21-119): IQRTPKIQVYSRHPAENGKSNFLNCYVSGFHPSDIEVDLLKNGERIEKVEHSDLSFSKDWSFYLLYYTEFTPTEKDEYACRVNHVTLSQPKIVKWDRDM
T1 sequence (P04439 25-365): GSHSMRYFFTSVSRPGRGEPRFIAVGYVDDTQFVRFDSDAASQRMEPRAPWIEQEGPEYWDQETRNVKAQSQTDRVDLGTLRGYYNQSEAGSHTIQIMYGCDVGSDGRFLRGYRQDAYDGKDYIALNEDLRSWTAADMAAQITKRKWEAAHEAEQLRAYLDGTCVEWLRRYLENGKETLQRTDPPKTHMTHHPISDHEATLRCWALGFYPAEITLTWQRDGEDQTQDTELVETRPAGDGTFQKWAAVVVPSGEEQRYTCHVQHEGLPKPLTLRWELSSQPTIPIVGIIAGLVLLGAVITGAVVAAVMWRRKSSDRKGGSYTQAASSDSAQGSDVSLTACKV
Excerpt: as §1, §2, §3

[7] = system: HLA molecules of the A29 type; assay type: binding, human
Excerpt: as §1, §2, §3

[8] = system: HLA molecules of the A24 type; assay type: binding, human
Excerpt: as §1, §2, §3

[9] = molecular target: T2, HLA molecules of the B7 type (Homo sapiens, UniProt P01889); assay type: binding
T2 construct: endogenous in cells
T2 sequence (P01889 25-362): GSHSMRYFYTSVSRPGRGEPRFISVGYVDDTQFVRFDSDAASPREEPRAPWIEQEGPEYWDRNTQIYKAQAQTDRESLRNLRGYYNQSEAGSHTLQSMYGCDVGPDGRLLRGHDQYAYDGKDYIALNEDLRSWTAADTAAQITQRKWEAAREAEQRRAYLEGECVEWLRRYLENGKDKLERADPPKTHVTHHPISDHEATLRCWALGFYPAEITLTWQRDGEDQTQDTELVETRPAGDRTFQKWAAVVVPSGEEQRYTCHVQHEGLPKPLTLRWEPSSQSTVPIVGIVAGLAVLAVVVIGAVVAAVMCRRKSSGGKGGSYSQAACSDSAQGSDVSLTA
T2 sequence (P61769 21-119, further chain): as the sequence (P61769 21-119) above
Excerpt: as §1, §2, §3

[10] = system: HLA molecules of the B35 type; assay type: binding, human
Excerpt: as §1, §2, §3

[11] = system: HLA molecules of the B51 type; assay type: binding, human
Excerpt: as §1, §2, §3

CVYCKQQL (Human Papillomavirus)
binding stably to HLA molecules of the B8 type [1]: binding stably

DKKQRFHNI (Human Papillomavirus)
binding stably to HLA molecules of the B8 type [1]: binding stably

LEDSSGNLL (listed as Homo sapiens)
binding stably to HLA molecules of the B44 type [2]: binding stably

LLGRNSFEV
binding stably to HLA molecules of the A2 type [3]: binding stably

FRHSVVVPY (listed as Homo sapiens)
binding stably to HLA molecules of the B27 type [4]: binding stably

FRDLCIVYR (Human Papillomavirus)
binding stably to HLA molecules of the A11 type [5]: binding stably
binding stably to HLA molecules of the A3 type [6]: binding stably

LEQQYNKPL
binding stably to HLA molecules of the A29 type [7]: binding stably
binding stably to HLA molecules of the B44 type [2]: binding stably

NYMCNSSCM (listed as Homo sapiens)
binding stably to HLA molecules of the A24 type [8]: binding stably

IYKQSQHM (listed as Homo sapiens)
binding stably to HLA molecules of the A24 type [8]: binding stably

IILECVYCK (Human Papillomavirus)
binding stably to HLA molecules of the A11 type [5]: binding stably

SYGFRLGFL (listed as Homo sapiens)
binding stably to HLA molecules of the A24 type [8]: binding stably

LECVYCKQQL (Human Papillomavirus)
binding stably to HLA molecules of the A29 type [7]: binding stably
binding stably to HLA molecules of the B44 type [2]: binding stably

LRVEYLDDR (listed as Homo sapiens)
binding stably to HLA molecules of the B27 type [4]: binding stably

RRPILTIITL (listed as Homo sapiens)
binding stably to HLA molecules of the B27 type [4]: binding stably

ITLEDSSGN (listed as Homo sapiens)
binding stably to HLA molecules of the A2 type [3]: binding stably

KLPQLCTEL
binding stably to HLA molecules of the A2 type [3]: binding stably

LEDLLMGTL (Human Papillomavirus)
binding stably to HLA molecules of the A29 type [7]: binding stably
binding stably to HLA molecules of the B44 type [2]: binding stably

RFHNIRGRW (Human Papillomavirus)
binding stably to HLA molecules of the A24 type [8]: binding stably

YMLDLQPETT
binding stably to HLA molecules of the A2 type [3]: binding stably

RVEGNLRVEY (listed as Homo sapiens)
binding stably to HLA molecules of the A2 type [3]: binding stably

RVRAMAIYK (listed as Homo sapiens)
binding stably to HLA molecules of the A3 type [6]: binding stably

QLCTELQTTI (Human Papillomavirus)
binding stably to HLA molecules of the A2 type [3]: binding stably

APPQHLIRV
binding stably to HLA molecules of the B7 type [9]: binding stably

LLMGTLGIV
binding stably to HLA molecules of the A2 type [3]: binding stably

TFRHSVVV (listed as Homo sapiens)
binding stably to HLA molecules of the A24 type [8]: binding stably

TRVRAMAIYK (listed as Homo sapiens)
binding stably to HLA molecules of the B27 type [4]: binding stably

VYDFAFRDL (Human Papillomavirus)
binding stably to HLA molecules of the A24 type [8]: binding stably

CYSLYGTTL (Human Papillomavirus)
binding stably to HLA molecules of the A24 type [8]: binding stably

SEYRHYCY (Human Papillomavirus)
binding stably to HLA molecules of the A29 type [7]: binding stably
binding stably to HLA molecules of the B44 type [2]: binding stably

EPDRAHYNIV (Human Papillomavirus)
binding stably to HLA molecules of the B35 type [10]: binding stably
binding stably to HLA molecules of the B7 type [9]: binding stably

VEGNLRVEY (listed as Homo sapiens)
binding stably to HLA molecules of the B44 type [2]: binding stably

LPQLCTEL (Human Papillomavirus)
binding stably to HLA molecules of the B51 type [11]: binding stably

GDTPTLHEY (Human Papillomavirus)
binding stably to HLA molecules of the B44 type [2]: binding stably

IVCPICSQK
binding stably to HLA molecules of the A11 type [5]: binding stably
binding stably to HLA molecules of the A3 type [6]: binding stably

AEPDRAHY (Human Papillomavirus)
binding stably to HLA molecules of the A29 type [7]: binding stably
binding stably to HLA molecules of the B44 type [2]: binding stably

IVYRDGNPY
binding stably to HLA molecules of the A11 type [5]: binding stably
binding stably to HLA molecules of the A3 type [6]: binding stably

NIVTFCCK (Human Papillomavirus)
binding stably to HLA molecules of the A11 type [5]: binding stably
binding stably to HLA molecules of the A3 type [6]: binding stably

TELQTTIHDI (Human Papillomavirus)
binding stably to HLA molecules of the A29 type [7]: binding stably
binding stably to HLA molecules of the B44 type [2]: binding stably

GSYGFRLGFL (listed as Homo sapiens)
binding stably to HLA molecules of the B35 type [10]: binding stably

TYSPALNKMF
binding stably to HLA molecules of the A24 type [8]: binding stably

GRNSFEVR (listed as Homo sapiens)
binding stably to HLA molecules of the B27 type [4]: binding stably

EYLDDRNTF
binding stably to HLA molecules of the A24 type [8]: binding stably

KPLCDLLI (Human Papillomavirus)
binding stably to HLA molecules of the B51 type [11]: binding stably
binding stably to HLA molecules of the B35 type [10]: binding stably
binding stably to HLA molecules of the B7 type [9]: binding stably

KKQRFHNIR (Human Papillomavirus)
binding stably to HLA molecules of the B27 type [4]: binding stably

TPTLHEYML (Human Papillomavirus)
binding stably to HLA molecules of the B35 type [10]: binding stably

RREVYDFAFR (Human Papillomavirus)
binding stably to HLA molecules of the B27 type [4]: binding stably

FAFRDLCIV (Human Papillomavirus)
binding stably to HLA molecules of the A2 type [3]: binding stably
binding stably to HLA molecules of the B51 type [11]: binding stably
binding stably to HLA molecules of the B35 type [10]: binding stably
binding stably to HLA molecules of the B7 type [9]: binding stably

TLGIVCPI (Human Papillomavirus)
binding stably to HLA molecules of the A2 type [3]: binding stably

QRFHNIRGRW (Human Papillomavirus)
binding stably to HLA molecules of the B27 type [4]: binding stably

IRVEGNLRVEY (listed as Homo sapiens)
binding stably to HLA molecules of the B27 type [4]: binding stably

PEEKQRHL (Human Papillomavirus)
binding stably to HLA molecules of the B44 type [2]: binding stably

TLEQQYNK (Human Papillomavirus)
binding stably to HLA molecules of the A11 type [5]: binding stably
binding stably to HLA molecules of the A3 type [6]: binding stably

RPILTIITL
binding stably to HLA molecules of the B35 type [10]: binding stably
binding stably to HLA molecules of the B7 type [9]: binding stably

ALNKMFCQL (listed as Homo sapiens)
binding stably to HLA molecules of the B35 type [10]: binding stably

VEYLDDRNTF (listed as Homo sapiens)
binding stably to HLA molecules of the B44 type [2]: binding stably

SDCTTIHYNY (listed as Homo sapiens)
binding stably to HLA molecules of the B44 type [2]: binding stably

PPGTRVRAM (listed as Homo sapiens)
binding stably to HLA molecules of the B35 type [10]: binding stably

YDFAFRDL (Human Papillomavirus)
binding stably to HLA molecules of the A29 type [7]: binding stably
binding stably to HLA molecules of the B44 type [2]: binding stably

TIHDIILRCV
binding stably to HLA molecules of the A2 type [3]: binding stably

GLAPPQHLIRV
binding stably to HLA molecules of the A2 type [3]: binding stably

STPPPGTRV (listed as Homo sapiens)
binding stably to HLA molecules of the A2 type [3]: binding stably

VRVCACPGR (listed as Homo sapiens)
binding stably to HLA molecules of the B27 type [4]: binding stably

TYQGSYGFRL
binding stably to HLA molecules of the A24 type [8]: binding stably

NTFRHSVVV
binding stably to HLA molecules of the B8 type [1]: binding stably

RPRKLPQL (Human Papillomavirus)
binding stably to HLA molecules of the B35 type [10]: binding stably
binding stably to HLA molecules of the B7 type [9]: binding stably
